For assay [1], the system named is benzodiazepine receptor. As to the kind of experiment: In vivo inhibition of 3H-flunitrazepam binding to the benzodiazepine receptor in living brain (ED50). Conditions: mice, subcutaneous, 3H-flunitrazepam i.v. 15 min later.
Assay [2] concerns the target benzodiazepine receptor. Nature of the assay: Displacement of 3H-flunitrazepam from benzodiazepine receptors in vitro (IC50). The settings on record: rat forebrain, 3H-flunitrazepam 1.0 nM, 0° C. Type of assay: binding. The source says:
For example, it is known that certain locations in the central nervous system of vertebrates have a high specific affinity for bonding 1,4 and 1,5-benzodiazepines. (See, e.g., R. F. Squires & C. Braestrup, Nature [London] 266 [1977], 734, which is incorporated by reference herein). These locations are called benzodiazepine receptors.
This displacement activity of the compounds of this invention has been determined by measuring IC50 and ED50 values. The IC50 value is the concentration which causes a 50% displacement of the specific binding of ^3 H-flunitrazepam (1.0 nM, 0° C.) in samples with a total volume of 0.55 ml of a suspension of brain membrane, e.g., from rats.
The displacement test is carried out as follows:
0.5 ml of a suspension of untreated rat forebrain in 25 mM KH2 PO4, at a pH of 7.1 (5-10 mg of tissue per sample) were incubated with ^3 H-diazepam (specific activity 14.4 Ci/millimole, 1.9 nM) or ^3 H-flunitrazepam (specific activity 87 Ci/millimole, 1.0 nM) for 40-60 minutes at 0° C. After incubation, the suspension is filtered through a glass frit, the residue is washed twice with a cold buffer solution and the radioactivity is measured by scintillation counting.
The test is then repeated, except prior to addition of the radioactively marked benzodiazepine, a given amount or an excess amount of the compound whose displacement activity is to be ascertained, is added. The IC50 value can then be computed from the test results obtained.

SMILES strings stand for the structures. Where only a bound is given, the exact number is not on record here.

For the compound `O=C(c1ccccc1)c1cc2c(cn1)[nH]c1ccccc12` [COC6 H5, 3-benzoyl-beta-carboline], the “In vivo ED50, inhibition of 3H flunitrazepam binding (Affinity for the benzodiazepine receptor)” value (shortened to “In vivo ED50, inhibition”) in assay [1] was determined as 223 mg/kg. Further, the “In vitro IC50, inhibition of 3H flunitrazepam binding (Affinity for the benzodiazepine receptor)” value (“In vitro IC50, inhibition” below) in assay [2] was 4.27 ng/mL. For `O=CNC(=O)c1cc2c(cn1)[nH]c1ccccc12` [CONHCHO, beta-carboline-3-(N-formylcarboxamide)], in that order: 197 mg/kg and 34 ng/mL. For `CCCCC(=NO)c1cc2c(cn1)[nH]c1ccccc12`, in that order: more than 250 mg/kg and 468 ng/mL. Taken in the same sequence, the figures for `C(=Nn1cnnc1)c1cc2c(cn1)[nH]c1ccccc12` were more than 250 mg/kg and more than 100 ng/mL. Regarding `CN1N=C(c2cc3c(cn2)[nH]c2ccccc23)CC1=O`, the “In vivo ED50, inhibition” value in assay [1] is on record as more than 250 mg/kg. Besides, the “In vitro IC50, inhibition” value in assay [2] was more than 400 ng/mL. Taken in the same sequence, the figures for `c1ccc2c(c1)[nH]c1cnc(-c3nc[nH]n3)cc12` were 26 mg/kg and 104 ng/mL. For `CN(C)S(=O)(=O)c1ccc2[nH]c3cnc(C=NO)cc3c2c1` [CHNOH, drawing 36], in that order: 300 mg/kg and 1.7 ng/mL. Taken in the same sequence, the figures for `CCN(CC)N=Cc1cc2c(cn1)[nH]c1ccccc12` [drawing 23] were 72 mg/kg and more than 100 ng/mL. Consider `CN1CCN(N=Cc2cc3c(cn2)[nH]c2ccccc23)CC1`, for which the “In vivo ED50, inhibition” value in assay [1] turned out to be 210 mg/kg. Besides, the “In vitro IC50, inhibition” value in assay [2] amounted to 100 ng/mL.

As for `CN(C)N=Cc1cc2c(cn1)[nH]c1ccc(S(=O)(=O)N(C)C)cc12` [drawing 32], the “In vivo ED50, inhibition” value in assay [1] is 35 mg/kg. Further, the “In vitro IC50, inhibition” value in assay [2] is 4 ng/mL. For `CC(=O)ON=Cc1cc2c(cn1)[nH]c1ccccc12` [CHNOCOCH3], the “In vivo ED50, inhibition” value in assay [1] was more than 250 mg/kg. The “In vitro IC50, inhibition” value in assay [2] came to 169 ng/mL. Taken in the same sequence, the figures for `CNN=Cc1cc2c(cn1)[nH]c1ccccc12` [CHNNHCH3, beta-carboline-3-carboxaldehyde-methylhydrazone] were 92 mg/kg and 149 ng/mL. Turning to `C(=NNc1ccccc1)c1cc2c(cn1)[nH]c1ccccc12` [CHNNHC6 H5, beta-carboline-3-carboxaldehyde-phenylhydrazone], the “In vivo ED50, inhibition” value in assay [1] is more than 250 mg/kg. In the case of `CONC=NC(=O)c1cc2c(cn1)[nH]c1ccccc12`, in assay [1], the “In vivo ED50, inhibition” value was more than 250 mg/kg. Besides, the “In vitro IC50, inhibition” value in assay [2] worked out at 100 ng/mL.

In the case of `CCOC(=O)CC(=O)c1cc2c(cn1)[nH]c1ccccc12` [COCH2 COOC2 H5, 3-carboethoxy-acetyl-beta-carboline], the “In vivo ED50, inhibition” value in assay [1] is on record as more than 250 mg/kg. In the case of `Cc1noc(-c2cc3c(cn2)[nH]c2ccccc23)n1`, the “In vivo ED50, inhibition” value in assay [1] came out at 15 mg/kg. Also, in assay [2], the “In vitro IC50, inhibition” value was 0.56 ng/mL. Taken in the same sequence, the figures for `CN(C)S(=O)(=O)c1ccc2[nH]c3cnc(C=NN4CCCC4)cc3c2c1` [drawing 34] were 210 mg/kg and 8 ng/mL.

Turning to `Cn1cnc(-c2cc3c(cn2)[nH]c2ccccc23)n1`, the “In vivo ED50, inhibition” value in assay [1] came to 145 mg/kg. Also, the “In vitro IC50, inhibition” value in assay [2] was more than 400 ng/mL.

Turning to `C(=NN1CCCC1)c1cc2c(cn1)[nH]c1ccccc12` [drawing 31], the “In vivo ED50, inhibition” value in assay [1] was 49 mg/kg. In addition, the “In vitro IC50, inhibition” value in assay [2] is more than 100 ng/mL. Taken in the same sequence, the figures for `CCCCC(=O)c1cc2c(cn1)[nH]c1ccccc12` [COCH2 CH2 CH2 CH3, 3-pentanoyl-beta-carboline] were 144 mg/kg and 20.0 ng/mL. For `C(=NN1CCCCC1)c1cc2c(cn1)[nH]c1ccccc12` [drawing 27], in that order: more than 250 mg/kg and more than 100 ng/mL. Taken in the same sequence, the figures for `ON=Cc1cc2c(cn1)[nH]c1ccccc12` [CHNOH, beta-carboline-3-carboxaldehyde-oxime] were 19 mg/kg and 8.7 ng/mL.

Regarding `CN(C)C=NC(=O)c1cc2c(cn1)[nH]c1ccccc12`, the “In vivo ED50, inhibition” value in assay [1] is reported as more than 250 mg/kg. The “In vitro IC50, inhibition” value in assay [2] was determined as 90 ng/mL. For `O=C1CC(c2cc3c(cn2)[nH]c2ccccc23)=NO1`, in that order: 100 mg/kg and 156 ng/mL. For `O=C1CC(c2cc3c(cn2)[nH]c2ccccc23)=NN1`, in that order: more than 250 mg/kg and more than 100 ng/mL. For `Cc1nc(-c2cc3c(cn2)[nH]c2ccccc23)n(C)n1`, in that order: more than 300 mg/kg and 179 ng/mL.

In the case of `CC(=NN(C)C)c1cc2c(cn1)[nH]c1ccccc12` [drawing 25], the “In vivo ED50, inhibition” value in assay [1] is given as 119 mg/kg. In addition, the “In vitro IC50, inhibition” value in assay [2] is more than 100 ng/mL. Taken in the same sequence, the figures for `CN(C)N=Cc1cc2c(cn1)[nH]c1ccccc12` [drawing 13] were 54 mg/kg and 41.7 ng/mL.

On to `C(=NN1CCOCC1)c1cc2c(cn1)[nH]c1ccccc12` [drawing 28], for which, in assay [1], the “In vivo ED50, inhibition” value is listed as more than 250 mg/kg. The “In vitro IC50, inhibition” value in assay [2] was more than 100 ng/mL. Consider `CNC(=O)CC(=O)c1cc2c(cn1)[nH]c1ccccc12` [COCH2 CONHCH3], for which the “In vivo ED50, inhibition” value in assay [1] is more than 250 mg/kg. In assay [2], the “In vitro IC50, inhibition” value was more than 100 ng/mL. For `Cc1n[nH]c(-c2cc3c(cn2)[nH]c2ccccc23)n1`, in that order: 139 mg/kg and 96 ng/mL. `CN(C)S(=O)(=O)c1ccc2[nH]c3cnc(C=O)cc3c2c1` [CHO, drawing 30, 6-dimethylsulfamoyl-beta-carboline-3-carboxaldehyde]: the “In vivo ED50, inhibition” value in assay [1] is more than 300 mg/kg. Also, the “In vitro IC50, inhibition” value in assay [2] was more than 100 ng/mL. On to `O=C(N=CNO)c1cc2c(cn1)[nH]c1ccccc12` [CONCHNHOH, N-[(hydroxyamino)methylene]-beta-carboline-carboxamide], for which the “In vivo ED50, inhibition” value in assay [1] was 93 mg/kg.

`CC(=NO)c1cc2c(cn1)[nH]c1ccccc12` [drawing 11]: the “In vivo ED50, inhibition” value in assay [1] is on record as 186 mg/kg. Further, the “In vitro IC50, inhibition” value in assay [2] is more than 100 ng/mL. For `C(=NOCc1ccccc1)c1cc2c(cn1)[nH]c1ccccc12` [CHNOCH2 C6 H5, beta-carboline-3-carboxaldehyde-oxime-benzylether], in that order: more than 250 mg/kg and 52.5 ng/mL.

Turning to `NC(=O)NN=Cc1cc2c(cn1)[nH]c1ccccc12` [CHNNHCONH2, beta-carboline-3-carboxaldehyde-semicarbazone], the “In vivo ED50, inhibition” value in assay [1] is reported as more than 250 mg/kg. Also, the “In vitro IC50, inhibition” value in assay [2] was more than 100 ng/mL.

Source of the values: US4596808A, “Pharmacologically active 3-substituted beta-carbolines useful as tranquilizers” (Schering Aktiengesellschaft, priority 1980, dated 1986).
